Assay results published in patent publication US20130236568A1, “PHOSPHAPLATINS HAVING ANTI-ANGIOGENIC, ANTI-METASTATIC, AND PRO-APOPTOTIC PROPERTIES AND USES THEREOF” (Ohio University, priority 2011, published 2013).

Key:
Assay type in all cases: cell-based, human
VEGFR2 gene = experiment: Quantitative real-time PCR, VEGFR2 gene expression in HUVEC cells
Description: (§1) Evaluations of selected gene expressions in Human Umbilical Vein Endothelial Cells (HUVEC) and Human Ovarian Cancer Cells by quantitative reverse transcriptase polymerase chain reaction (PCR)
(§2) Quantitative real-time PCR experiments were performed to estimate the expression of a selection of targeted genes. HUVEC cells (Lonza Walkersville, Frederick, Md.) were cultured on 0.1% gelatin-coated petri dishes by following standard protocols recommended by the vendor in a humidified incubator by maintaining 5% CO2 at 37° C. […]
(§3) Both treated and untreated cancer cells were maintained in RPMI 1640 medium with 10% fetal bovine serum, 2 μmol L-glutamine, 100 units/mL penicillin-streptomycin and 0.25 units/mL insulin solution, at 37° C. with 5% CO2. […] The quantity and purity of RNA were determined by UV spectroscopy (NanoDrop 2000 Thermo Scientific, Wilmington, Del.). A minimum absorbance ratio index (ratio of the absorbance measured at 260 nm over that at 280 nm) of 1.9 was used as an acceptable purity. […] The target gene was labeled with a blue dye (FAM, absorbance: 494 nm, emission: 518 nm) while the reference gene was tagged with a green dye (VIC, absorbance: 538 nm, emission: 554 nm). […]
(§4) The threshold cycle number (Ct), the point at which the fluorescence of the qPCR reaction just exceeds the threshold fluorescence of the detection system, was determined. […]

PTEN [1] = experiment: Quantitative real-time PCR, PTEN expression in A2780 cells; details: for Normalized expression of PTEN: control = 1.0
Description: as §1
(§5) Quantitative real-time PCR experiments were performed to estimate the expression of a selection of targeted genes. HUVEC cells (Lonza Walkersville, Frederick, Md.) were cultured on 0.1% gelatin-coated petri dishes by following standard protocols recommended by the vendor in a humidified incubator by maintaining 5% CO2 at 37° C. Human epithelial ovarian cancer cells (A2780) and cisplatin-resistant cells (A2780/C30) were cultured in RPMI 1640 with or without cisplatin (7 μM) and pyrodach-4 (180 μM) for 0, 3, 12 and 24 hours. […] HUVECs were treated with or without cisplatin (7 μM) or pyrodach-4 (90 or 180 μM) for various durations ranging from 1 hr. to 6 hrs.
Both treated and untreated cancer cells were maintained in RPMI 1640 medium with 10% fetal bovine serum, 2 μmol L-glutamine, 100 units/mL penicillin-streptomycin and 0.25 units/mL insulin solution, at 37° C. with 5% CO2. RNA was isolated from both the treated and untreated cells. […] The quantity and purity of RNA were determined by UV spectroscopy (NanoDrop 2000 Thermo Scientific, Wilmington, Del.). A minimum absorbance ratio index (ratio of the absorbance measured at 260 nm over that at 280 nm) of 1.9 was used as an acceptable purity. […] The target gene was labeled with a blue dye (FAM, absorbance: 494 nm, emission: 518 nm) while the reference gene was tagged with a green dye (VIC, absorbance: 538 nm, emission: 554 nm). The cDNA concentrations were selected such that the threshold cycle (Ct) values for the target genes were between 17 and 32, most sensitive for the fluorescence detection by ABI StepOnePlus™ instrument used for the measurements.
as §4

PTEN [2] = experiment: Quantitative real-time PCR, PTEN expression in A2780/C30 cells
Description: as §1, §2, §3, §4

BAX = experiment: Expression of key genes with and without p53 inhibitor (Table 3): BAX; details: positive = manifold increase, negative = decrease vs untreated cells
Description: as §5
as §3, with “CO2. RNA was isolated from both the treated and untreated cells.” for “CO2.”

E-cadherin = experiment: Immunofluorescent labeling of E-cadherin protein in A2780 cells; details: 24 hr treatment at or below IC50 concentration
Description: Left panels show E-cadherin bound to its antibody labeled with FITC (green). The middle and right panels represent nuclei stained with Prolong® Gold Antifade Reagent with 4′-6-Diamidino-2-phenylindole (DAPI, a nuclear stain) and merger of the left and middle panels (see Example 5 below for details).
Cells were grown on multi-chamber slide systems (Lab-Tek™, Nunc, Denmark). These cells were treated with pyrodach-4 at or below IC50 concentrations for 24 hours. Untreated cells were used as a control while treated and untreated cells without primary antibody labeling were used as negative controls. […] The Fas and E-cadherin proteins were detected via direct labeling using anti-Fas (FITC labeled, Santa Cruz Biotechnology, Inc., Santa Cruz, Calif.) and anti-E-cadherin (FITC labeled, BD Transduction Laboratories, Franklin Lakes, N.J.) fluorescently tagged antibodies. Other proteins, p53, BAX and PUMA were detected indirectly with fluorescently labeled secondary antibodies (Texas Red-conjugated anti-mouse IgG for p53 and Fluorescein-conjugated anti-rabbit IgG for BAX and PUMA, obtained from Vector Labs, Burlingame, Calif.) at 1:1000 dilution. […] The stain was cured for 24 hours before fluorescence images were acquired. […]

## trans-(±)-1,2-cyclohexanediamine-trans-dihydroxo(pyrophosphato) platinum(IV) [Pyrodach-4]
VEGFR2 gene
  Suppression of VEGFR-2 expression: ≤ 50%
VEGFR2 gene; positive = manifold increase, negative = relative decrease vs untreated cells, pyrodach-4 90 or 180 μM, 1 to 6 hrs
  Normalized expression of VEGFR2 gene: −2.0
PTEN [1]
  Expression of the PTEN gene compared to control: 5.5 fold
PTEN [1]; pyrodach-4 alone
  Normalized expression of PTEN: 5.5
PTEN [1]; pyrodach-4 in the presence of p53 inhibitor PTF-α
  Normalized expression of PTEN: 0.8
PTEN [2]
  Expression of the PTEN gene compared to control: 2.3 fold
PTEN [2]; pyrodach-4 alone, control = 1.0
  Normalized expression of PTEN: 2.3
BAX; Pyrodach-4 + PFT-α (p53 inhibitor)
  Expression of BAX: 1.0
BAX; Pyrodach-4 treatment only, cell line not given
  Expression of BAX: 2.8
E-cadherin
  Diffusivity of E-cadherin (immunofluorescence): reduces the diffusivity
  Expression of E-cadherin protein (immunofluorescence): increases the expression
